Source: patent US20160264593A1 (priority 2013, published 2016)

Test: in vivo
Conditions: rat, in vivo; for Tmax: Tmax of 100; for MRT: MRT of 100
Description: 100 was administrated via iv route at 0.5, 1.0 and 1.5 mg/kg into SD rats. The blood, liver and brain tissue samples were collected at predetermined times from rats.
Twelve (12) female SD rats per group were dosed by iv with 100. The rats were fasted overnight prior to dosing, with free access to water. Foods were withheld for 2 hours post-dose. Blood, liver and brain tissue samples in two animals each group were collected at each time point, within 10% of the scheduled time for each time point. Two extra animals were used for analytic method development. Blood (>0.3 mL) were collected via aorta abdominalis in anaesthetic animalsinto tubes containing heparin at 15 min, 1, 2, 6, 10 and 24 hours after iv administration. Liver and brain tissues were collected immediately after animal death. The liver and brain tissues were excised and rinsed with cold saline to avoid blood residual. Upon collection, each sample was placed on ice and the blood samples were subsequently centrifuged (4° C., 11000 rpm, 5 min) to separate plasma. The obtained plasma, liver and brain tissue samples were stored at −70° C. until LC-MS/MS analysis.
AUC0-∞ (AUC/NF) is the area under the plasma concentration-time curve with last concentration extrapolated based on the elimination rate constant.

[1] = female, Sprague-Dawley (SD), iv, 0.5 mg/kg, 100 brain concentration
[2] = female, Sprague-Dawley (SD), iv, 0.5 mg/kg, 100 liver concentration
[3] = female, Sprague-Dawley (SD), iv, 1 mg/kg, 100 liver concentration
[4] = female, Sprague-Dawley (SD), iv, 1.5 mg/kg, 100 brain concentration
[5] = female, Sprague-Dawley (SD), iv, 1.5 mg/kg, 100 liver concentration
[6] = female, Sprague-Dawley, iv, 0.5 mg/kg, 100 plasma concentration
[7] = female, Sprague-Dawley, iv, 1 mg/kg, 100 plasma concentration
[8] = female, Sprague-Dawley, iv, 1.5 mg/kg, 100 plasma concentration

In the case of `CN1CCN(C(=O)C2C3CCC(O3)C2C(=O)O)CC1` (stereo not drawn) [Compound 100, 3-(4-methylpiperazine-1-carbonyl)-7-oxa-bicyclo[2,2,1]-heptane-2-carboxylic acid], the AUC(0-inf) (female, SD, iv, 0.5 mg/kg) is reported as 706 ng·h/mL, the AUC(0-t) (female, SD, iv, 0.5 mg/kg) is reported as 696 ng·h/mL and the “Tmax of 100” value (female, SD, iv, 0.5 mg/kg) is reported as 15 min. The Cmax (female, SD, iv, 0.5 mg/kg, Cmax of 100) was 1110 ng/mL, the Tmax (female, SD, iv, 0.5 mg/kg) was 15 min and the AUC(0-inf) (female, SD, iv, 1 mg/kg) was 2830 ng·h/mL. The AUC(0-t) (female, SD, iv, 1 mg/kg) was 1920 ng·h/mL, the “Tmax of 100” value (female, SD, iv, 1 mg/kg) was 15 min and the Cmax (female, SD, iv, 1 mg/kg, Cmax of 100) was 2380 ng/mL. It also gave an MRT (female, SD, iv, 1 mg/kg) of 2.68 h, a Tmax (female, SD, iv, 1 mg/kg) of 15 min and an AUC(0-inf) (female, SD, iv, 1.5 mg/kg) of 8640 ng·h/mL. It also gave an AUC(0-t) (female, SD, iv, 1.5 mg/kg) of 7400 ng·h/mL, a Cmax (female, SD, iv, 1.5 mg/kg, Cmax of 100) of 3660 ng/mL and an MRT (female, SD, iv, 1.5 mg/kg) of 2.57 h. It also gave a half-life (female, SD, iv, 1.5 mg/kg, T½ of 100) of 116 min, a concentration at 0.25 h [1] of 15.3 ng/g and a concentration at 0.25 hr [1] of 17.4 ng/g. It also gave a concentration at 1 hr [1] of 6.31 ng/g, a concentration at 0.25 h [2] of 520 ng/g and a concentration at 2 h [2] of 109 ng/g. It also gave a concentration at 6 h [2] of 4.8 ng/g, a concentration at 2 h (female, Sprague-Dawley (SD), iv, 0.5 mg/kg, 100 plasma concentration) of 22.6 ng/mL and a concentration at 0.25 h [3] of 1300 ng/g. The concentration at 1 h [3] was 865 ng/g, the concentration at 0.25 h [4] was 46.9 ng/g and the concentration at 1 h [4] was 28.2 ng/g. It also gave a concentration at 2 h [4] of 27.2 ng/g, a concentration at 6 h [4] of 4.23 ng/g and a concentration at 0.25 h [5] of 1980 ng/g. For the same compound, the concentration at 1 h [5] was 2140 ng/g, the concentration at 2 h [5] was 2400 ng/g and the concentration at 6 h [5] was 407 ng/g. For the same compound, the concentration at 10 h [5] was 5.25 ng/g, the 100 liver concentration (female, Sprague-Dawley (SD), iv, 1.5 mg/kg, 6 h) was 536 ng/g and the concentration at 0.25 h [6] was 1000 ng/mL. For the same compound, the concentration at 1 h [6] was 192 ng/mL, the concentration at 2 h [6] was 25.8 ng/mL and the 100 plasma concentration (female, Sprague-Dawley, iv, 0.5 mg/kg, 2 h) was 19.4 ng/mL. It also gave a concentration at 0.25 h [7] of 2120 ng/mL, a concentration at 1 h [7] of 354 ng/mL and a concentration at 6 h [7] of 3.27 ng/mL. It also gave an AUC(0-t) (female, Sprague-Dawley, iv, 1.5 mg/kg) of 696 to 7400 ng·h/mL, a concentration at 0.25 h [8] of 3780 ng/mL and a concentration at 1 h [8] of 1760 ng/mL. It also gave a concentration at 2 h [8] of 1310 ng/mL, a concentration at 6 h [8] of 263 ng/mL and a half-life (female, Sprague-Dawley, iv, 1.5 mg/kg, T1/2 of 100 in brain) of 100 to 116 min. For the same compound, the half-life (female, Sprague-Dawley, iv, 1.5 mg/kg, T1/2 of 100 in liver) was 46.8 to 121 min, the half-life (female, Sprague-Dawley, iv, 1.5 mg/kg, T1/2 of 100 in plasma) was 18.6 to 132 min and the Cmax (female, Sprague-Dawley, iv, 1.5 mg/kg, mean Cmax of 100 in brain) was 17.4 to 43.5 ng/g. The Cmax (female, Sprague-Dawley, iv, 1.5 mg/kg, mean Cmax of 100 in liver) was 586 to 2550 ng/g, the “AUC of 100 versus dose level (statement)” value was “increased proportionally” and the “100 detectable in brain tissue samples” value (iv) was “detectable”. For the same compound, the “100 detectable in liver tissue samples” value (iv) was “detectable”, the “100 in brain tissue” value (iv) was “below limit of quantification” and the “100 in liver tissue” value (iv) was “below limit of quantification”. The “AUCINF of 100” value (iv, 0.5 mg/kg) was 902.2 ng·h/g, the “AUClast of 100 in brain” value (iv, 1.5 mg/kg) was 10.8˜125.5 ng·h/g and the “AUClast of 100 in liver” value (iv, 1.5 mg/kg) was 758.6˜9081.0 ng·h/g.
